According to patent US20060111305A1, “Metabolites of certain [1,4]diazepino[6,7,1-ij]quinoline derivatives and methods of preparation and use thereof” (Wyeth, priority 2004, published 2006):
Structures can show the parent of a compound that is named as a salt. Where two headings read alike, the source gives them in different places. Marks after values point to notes of the source that are not given here.

Key:
[1] = Rat plasma metabolite profiles after single oral 5 mg/kg [14C]DCDQ; format: in vivo, Sprague-Dawley rats; details: for concentration at 2 h / concentration at 8 h / concentration at 4 h: Sprague-Dawley, rat, plasma, mean n = 3, read-out: Estimated plasma concentration in rats; for Chromatographic distribution of radioactivity in rat plasma / Estimated plasma concentration in rats: mean n = 3
Procedure: Plasma samples were analyzed for metabolite profiles by HPLC. Aliquots of 1.5 mL plasma were mixed with 3.0 mL methanol, placed on ice for about 10 minutes, and then centrifuged. The supernatant was transferred to a clean tube. The protein pellets were extracted once with 3.0 mL methanol. The supernatants from precipitation and extraction of each sample were pooled, mixed, and evaporated at 22° C. under nitrogen in a Zymark TurboVap LV (Caliper Life Sciences, Hopkinton, Mass.) to about 0.3 mL. The concentrated extract was centrifuged, the supernatant volume measured and extraction efficiency was determined by analyzing duplicate 10 μL aliquots for radioactivity. An aliquot of the supernatant (50-200 μL) was analyzed by HPLC with radioactivity flow detection. Plasma extracts were also analyzed by LC/MS.
(§1) A Waters model 2690 HPLC system (Waters Corp., Milford, Mass.) with a built-in autosampler was used for analysis. Separations were accomplished on a Phenomenex Luna C18(2) column (150×2.0 mm, 5 μm) (Phenomenex, Torrance, Calif.). The sample chamber of the autosampler was maintained at 4° C., while the column was at ambient temperature of about 20° C. A variable wavelength UV detector set to monitor 250 nm and a Flo-One β Model A525 radioactivity detector described above were used for data acquisition. The HPLC mobile phase consisted of 10 mM ammonium acetate, pH 4.5 (A) and methanol (B), and was delivered at 0.2 mL/min. Chromatographic condition A was used for dose analysis, while condition B was used for analysis of urine and plasma, brain and fecal extracts.

[2] = Metabolites of DCDQ identified in rats by LC/MS analysis (Table 18); format: in vivo, Sprague-Dawley rats; details: P = plasma, U = urine, B = brain, F = feces
Procedure: An Agilent Model 1100 HPLC system (Agilent Technologies, Wilmington, Del.) including an autosampler and diode array UV detector was used for LC/MS analysis of plasma and urine samples. The UV detector was set to monitor 200 to 400 nm. For selected LC/MS analyses, radiochromatograms were acquired using a β-Ram model 3 radioactivity flow detector (IN/US Systems Inc., Tampa, Fla.) equipped with a solid scintillant flow cell. Fecal samples were also analyzed using a Waters Alliance model 2690 HPLC system. It was equipped with a built-in autosampler and a model 996 diode array UV detector set to 210-350 nm. The HPLC flow was split between a Radiomatic model 150TR flow scintillation analyzer (Perkin Elmer) and the mass spectrometer. Other HPLC conditions were the same as condition B described above.
The mass spectrometer used for metabolite characterization for plasma and urine was a Micromass Q-TOF-2 quadrupole time-of-flight hybrid mass spectrometer (Waters). The mass spectrometer was equipped with an electrospray ionization (ESI) interface and operated in the positive ionization mode. Collision energy settings of 5 and 30 eV were used for full MS and MS/MS scans, respectively. Settings for the mass spectrometer are listed below.
A Micromass Quattro Micro mass spectrometer (Waters) was also used to analyze the fecal samples. It was equipped with an electrospray ionization (ESI) interface and operated in the positive ionization mode. Settings for the mass spectrometer are listed below.
LC/MS/MS in the selected reaction-monitoring (SRM) mode (LC/SRM) was conducted with the triple quadruple mass spectrometer to monitor DCDQ and its metabolites in fecal samples. The transitions monitored are listed below.

[3] = Rat fecal excretion and metabolite profiles after single oral 5 mg/kg [14C]DCDQ; format: in vivo, Sprague-Dawley rats; details: male rats, 8-24 hour fecal extracts
Procedure: (§2) At sacrifice, blood samples were collected by cardiac puncture into tubes containing EDTA as the anticoagulant and placing them on ice. Aliquots of 50 μL were removed for combustion and determination of radioactivity content. Plasma was immediately obtained from the remaining blood by centrifugation at 4° C. Brains were excised after perfusion with 50 mL of chilled sterile saline. Urine samples were collected on dry ice at intervals of 0-8 and 8-24 hour post-dosing. Feces were collected at intervals of 0-8 and 8-24 hr post-dosing at room temperature and were homogenized as described previously. The biological specimens and aliquots of the dosing solution at pre- and post-dose were stored at approximately −70° C. until analyzed.
Brain and fecal samples were weighed and homogenized in water at volume-to-weight ratios of about 1:1 and 5:1, respectively. Blood aliquots (50 μL), brain homogenates (0.1 gram) and fecal homogenates (0.2 gram) were placed on Combusto-cones with Combusto-pads and combusted. A model 307 Tri-Carb Sample Oxidizer, equipped with an Oximate-80 Robotic Automatic Sampler (Perkin Elmer), was used for combustion. The liberated ^14CO2 was trapped with Carbo-Sorb E carbon dioxide absorber, mixed with PermaFluor® E+ liquid scintillation cocktail, and counted in a Tri-Carb Model 3100 TR/LL liquid scintillation counter (Perkin Elmer). The oxidation efficiency of the oxidizer was 98.2%.
(§3) Fecal homogenates were analyzed for metabolite profiles. Aliquots of 1 gram of fecal homogenates were mixed with 2 mL methanol, placed on ice for about 10 minutes and centrifuged. The supernatant was transferred to a clean tube. The residue was extracted three times with 2 mL of a water:methanol (3:7) mixture. The supernatants of each sample were combined, evaporated to about 1 mL, and centrifuged. Extraction efficiency was determined by analyzing aliquots of 10 μL of the supernatant for radioactivity. An aliquot (50-200 μL) of the supernatant was analyzed by HPLC with radioactivity flow detection for profiling. Samples were also analyzed by LC/MS to characterize the radioactive peaks.
as §1, with “Chromatographic condition A was used for dose analysis, while condition B was used for analysis of urine and plasma, brain and fecal extracts.” left out

[4] = Dog fecal excretion and metabolite profiles after oral capsule of [14C]DCDQ; format: in vivo, beagle dogs
Procedure: Blood samples were collected from the jugular vein at 2, 4, 8, 24 and 48 hour after dose administration into tubes containing potassium EDTA as the anticoagulant and then placed on ice. Aliquots of 50 μL were removed for combustion and determination of radioactivity content. Plasma was immediately obtained from the remaining blood by centrifugation at 4° C. Urine samples were collected into tubes on dry ice at intervals of 0-8, 8-24 and 24-48 hour post-dose. Fecal samples were collected at intervals of 0-8, 8-24 and 24-48 hour post-dose at room temperature, and were homogenized. The biological specimens were stored at approximately −70° C. until analysis.
Feces were weighed and homogenized in water at a volume-to-weight ratio of about 5:1. Aliquots of blood (200 μL) and fecal homogenates (0.25-0.53 gram) were placed on Combusto-cones with Combusto-pads and combusted. A model 307 Tri-Carb sample oxidizer, equipped with an Oximate-80 robotic automatic sampler (Perkin Elmer), was used for combustion of blood and fecal samples. The liberated ^14CO2 was trapped with Carbo-Sorb E carbon dioxide absorber, mixed with PermaFluor® E+ liquid scintillation cocktail, and counted on a Tri-Carb Model 3100 TR/LL liquid scintillation counter (Perkin Elmer). The efficiency of combustion was 98.9%.
as §3, with “fecal homogenate” for “fecal homogenates”, “supernatants from” for “supernatants of”, “for metabolite profiles.” for “for profiling.”
as §1, with “detector” for “detector described above”, “acetonitrile” for “methanol”

[5] = Rat urinary excretion and metabolite profiles after single oral 5 mg/kg [14C]DCDQ; format: in vivo, Sprague-Dawley rats; details: oral 5 mg/kg, mean n = 3
Procedure: as §2
Plasma (20 μL) and urine (50 μL) aliquots were analyzed for radioactivity concentrations. Radioactivity determinations of dose, plasma and urine were made with a Tri-Carb Model 3100 TR/LL liquid scintillation counter (LSC) (Perkin Elmer) using 10 mL of Ultima Gold as the scintillation fluid.
Urine was analyzed for radioactivity concentration as and analyzed for metabolite profiles by direct injection onto the HPLC column. LC/MS analyses for metabolite identification were also carried out with urine samples.
as §1

concentration at 2 h ([1]; female, 2 hr) | concentration at 8 h ([1]; female, 8 hr) | concentration at 2 h ([1]; male, 2 hr) | concentration at 4 h ([1]; male, 4 hr) | concentration at 8 h ([1]; male, 8 hr) | Chromatographic distribution of radioactivity in rat plasma ([1]; female, 2 hr) | Chromatographic distribution of radioactivity in rat plasma ([1]; female, 8 hr) | Chromatographic distribution of radioactivity in rat plasma ([1]; male, 2 hr) | Chromatographic distribution of radioactivity in rat plasma ([1]; male, 4 hr) | Chromatographic distribution of radioactivity in rat plasma ([1]; male, 8 hr) | Matrix [2] | Estimated plasma concentration in rats ([1]; male, 2 hr) | Estimated plasma concentration in rats ([1]; male, 4 hr) | Estimated plasma concentration in rats ([1]; male, 8 hr) | Structure (SMILES) | further results
41 ng/mL | 16.6 ng/mL | 37.2 ng/mL | 34.5 ng/mL | 16.3 ng/mL | 6.1% | 4.9% | 6.0% | 5.2% | 3.6% | P, B, F |  |  |  | CC(=O)N1Cc2cccc3c2N(C[C@@H]2CCC[C@H]32)C(O)C1 (some centres unmarked) [Metabolite M11, acetylated hydroxy DCDQ] | relative abundance in fecal extracts [3]: major metabolites
33.8 ng/mL | 11.8 ng/mL |  |  |  | 5.2^e % | 3.3% | BQL^c | BQL | BQL | P, U | BQL^c | BQL | BQL | O=S(=O)(O)N1CCN2C[C@@H]3CCC[C@@H]3c3cccc(c32)C1 [Metabolite M12, DCDQ sulfamate] | 
 |  |  |  |  |  |  |  |  |  |  |  |  |  | O=C1NCCN2C[C@@H]3CCC[C@@H]3c3cccc1c32 [Metabolite M18, keto DCDQ] | % of total radioactivity in fecal extracts [4]: up to 16.4%; metabolite detected in feces [4]: detected
16.6 ng/mL | 5.62 ng/mL | 11.6 ng/mL | 14.2 ng/mL | 6.33 ng/mL | 2.6% | 1.6% | 1.9% | 2.2% | 1.4% |  |  |  |  | O=S(=O)(O)OC1CC[C@@H]2c3cccc4c3N(CCNC4)CC12 (some centres unmarked) [Metabolite M13, 17-hydroxy DCDQ sulfate] | 
25.1 ng/mL | 16.5 ng/mL |  |  |  | 4.0^d % | 4.9^d % | BQL | BQL | BQL | P, U | BQL | BQL) | BQL | O=S(=O)(O)N1CCN2CC3=CCC=C3c3cccc(c32)C1 [Metabolite M14, di-dehydro DCDQ sulfamate] | 
35.2 ng/mL | 18.9 ng/mL | 23.7 ng/mL | 9.81 ng/mL | 13.2 ng/mL | 5.2% | 5.6% | 3.6% | 1.5% | 3.0% | U, B, F |  |  |  | OC1CNCc2cccc3c2N1C[C@@H]1CCC[C@H]31 (some centres unmarked) [Metabolite M10, hydroxy DCDQ] | Chromatographic distribution of radioactivity in male rat urine ([5]; 0-8 hr): 3.32%; Percentage of dose for urinary metabolites in rats ([5]; 0-8 hr): 1.08%; Percentage of dose for urinary metabolites in rats ([5]; 0-24 hr): 1.99%; Chromatographic distribution of radioactivity in male rat urine ([5]; 8-24 hr): 2.70%; Percentage of dose for urinary metabolites in rats ([5]; 8-24 hr): 0.91%
